Results from US20020007060A1, “Reverse hydroxamate inhibitors of matrix metalloproteinases” (priority 1998, published 2002).
pIC50: −log10 of the molar value.

Key:
[1] = target: T1, Recombinant truncated stromelysin (human sequence) (Homo sapiens, UniProt P08254); test: Determination of Stromelysin Inhibition; assay type: biochemical; settings: cleavage of thiopeptide ester substrate Ac-Pro-Leu-Gly-[2-mercapto-4-methyl-pentanoyl]-Leu-Gly-OEt, DTNB read at 405 nm, 30 minute assay at ambient temperature, 50 mM MES/NaOH 6.5
T1 construct: made in house; host or cells: E. coli
Procedure: The efficacy of the compounds of this invention as matrix metalloproteinase inhibitors was determined by measuring the inhibition of stromelysin. The inhibition of stromelysin by the compounds of this invention was determined as follows: Recombinant truncated stromelysin (human sequence) produced in E. coli was prepared by expression and purification of the protein as described by Ye et al. (Biochemistry, 1992, 31, 11231-11235, which is incorporated herein by reference). The enzyme was assayed by its cleavage of the thiopeptide ester substrate Ac-Pro-Leu-Gly-[2-mercapto-4-methyl-pentanoyl]-Leu-Gly-OEt as described by Weingarten and Feder (Anal. Biochem., 1985, 147, 437-440 (1985), which is incorporated herein by reference) as a substrate of vertebrate collagenase. The reported conditions were modified to allow assays to be carried out in a microtiter plate. Upon hydrolysis of the thioester bond, the released thiol group reacted rapidly with 5,5′-dithio-bis(2-nitrobenzoic acid) (DTNB) to produce a yellow color which was measured by a microtiter plate reader set at 405 nm. The rates of cleavage of the substrate by stromelysin in the presence or absence of inhibitors were measured in a 30 minute assay at ambient temperature. Solutions of the compounds in DMSO were prepared, and these were diluted at various concentrations into the assay buffer (50 mM MES/NaOH 6.5 with 10 mM CaCl2 and 0.2% Pluronic F-68), which was also used for dilution of the enzyme and substrate. The potency of the compounds [IC50] was calculated from the inhibition/inhibitor concentration data.

T1 sequence (P08254 100-272 limits assumed): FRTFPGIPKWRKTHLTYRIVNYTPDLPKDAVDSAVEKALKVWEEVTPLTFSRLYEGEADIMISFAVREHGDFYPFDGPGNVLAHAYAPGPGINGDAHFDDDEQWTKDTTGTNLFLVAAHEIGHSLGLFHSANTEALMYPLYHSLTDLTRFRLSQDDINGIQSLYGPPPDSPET

SMILES	pIC50 [1]	melting point [°C]
CN1C(=O)N(CCC(COc2ccc(-c3ccc(C#N)cc3)cc2)N(O)C=O)C(=O)C1(C)C (racemic) [Example 5, (±)-N-[1-[[(4′-cyano-[1,1′-biphenyl]-4-yl)oxy]methyl]-3-(3,4,4-trimethyl-2,5-dioxoimidazolidiny-1-yl)propyl]-N-hydroxyformamide]	7.77	68 to 70
CC(C)CC(COc1ccc(-c2ccc(C#N)cc2)cc1)N(O)C=O (racemic) [Example 7, (±)-N-[1-[[(4′-cyano-[1,1′-biphenyl]-4-yl)oxy]methyl]-3-methylbutyl]-N-hydroxyformamide]	6.92	112 to 113
CN1C(=O)N(CC(COc2ccc(-c3ccc(C#N)cc3)cc2)N(O)C=O)C(=O)C1(C)C (racemic) [Example 4, (±)-N-[1-[[(4′-cyano-[1,1′-biphenyl]-4-yl)oxy]methyl]-2-(3,4,4-trimethyl-2,5-dioxoimidazolidin-1-yl)ethyl]-N-hydroxyformamide]	8.04	65 to 67
CCCCC(COc1ccc(-c2ccc(C#N)cc2)cc1)N(O)C=O (racemic) [Example 9, (±)-N-[1-[[(4′-cyano-[1,1′-biphenyl]-4-yl)oxy]methyl]pentyl]-N-hydroxyformamide]		105 to 108
N#Cc1cccc(-c2ccc(OCC(CN3C(=O)CCC3=O)N(O)C=O)cc2)c1 (stereo not drawn) [Example 49, N-[1-[[(3′-cyano[1,1′-biphenyl]-4-yl)oxy]methyl]-2-(2,5-dioxo-1-pyrrolidinyl)ethyl]-N-hydroxyformamide]		128
CCC(C)C(COc1ccc(-c2ccc(C#N)cc2)cc1)N(O)C=O (racemic) [Example 8, (±)-N-[1-[[(4′-cyano-[1,1′-biphenyl]-4-yl)oxy]methyl]-2-methylbutyl]-N-hydroxyformamide]		96 to 98
